In PubChem BioAssay (NCI):
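Where inhibition never reached the appropriate level, the endpoint shown equals the highest concentration tested. Otherwise, values were interpolated linearly from a five-concentration, 48-hour dose response in 96-well plates. GI50 = concentration required for 50% inhibition of growth. Definition used: TGI = concentration required for complete inhibition of growth.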

Key:
Experiment in all cases: NCI-60 cell line screen, 48 h; in the data active means GI50 below about 0.43 µM; inactive means the rest
[1] = test system: 786-0 renal
[2] = test system: A549 NSCLC
[3] = test system: ACHN renal
[4] = test system: CAKI-1 renal
[5] = test system: CCRF-CEM leukemia
[6] = test system: COLO 205 colon
[7] = test system: DLD-1 colon
[8] = test system: DMS 114 small cell lung
[9] = test system: DMS 273 small cell lung
[10] = test system: EKVX NSCLC
[11] = test system: HCC-2998 colon
[12] = test system: HCT-116 colon
[13] = test system: HCT-15 colon
[14] = test system: HL-60(TB) leukemia
[15] = test system: HOP-18 NSCLC
[16] = test system: HOP-62 NSCLC
[17] = test system: HOP-92 NSCLC
[18] = test system: HT29 colon
[19] = test system: K-562 leukemia
[20] = test system: KM12 colon
[21] = test system: KM20L2 colon
[22] = test system: LXFL 529 NSCLC
[23] = test system: M14 melanoma
[24] = test system: MALME-3M melanoma
[25] = test system: MOLT-4 leukemia
[26] = test system: NCI-H226 lung
[27] = test system: NCI-H23 lung
[28] = test system: NCI-H460 lung
[29] = test system: NCI-H522 lung
[30] = test system: OVCAR-3 ovarian
[31] = test system: OVCAR-4 ovarian
[32] = test system: OVCAR-8 ovarian
[33] = test system: RPMI-8226 leukemia
[34] = test system: RXF 393 renal
[35] = test system: SF-268 CNS
[36] = test system: SF-295 CNS
[37] = test system: SF-539 CNS
[38] = test system: SK-MEL-2 melanoma
[39] = test system: SK-MEL-28 melanoma
[40] = test system: SN12C renal
[41] = test system: SNB-19 CNS
[42] = test system: SNB-75 CNS
[43] = test system: SR leukemia
[44] = test system: SW-620 colon
[45] = test system: TK-10 renal
[46] = test system: U251 CNS
[47] = test system: UACC-257 melanoma
[48] = test system: UACC-62 melanoma
[49] = test system: UO-31 renal
[50] = test system: XF 498 CNS
[51] = test system: A498 renal
[52] = test system: IGROV1 ovarian
[53] = test system: LOX IMVI melanoma
[54] = test system: M19-MEL melanoma
[55] = test system: SK-MEL-5 melanoma
[56] = test system: SK-OV-3 ovarian
[57] = test system: SNB-78 CNS
[58] = test system: OVCAR-5 ovarian

O=C1c2ccccc2C(=O)c2[nH]c(Cc3ccccc3F)nc21
82.5 µM: TGI [7]
88.3 µM: TGI [45]
> 100 µM: TGI [1] | TGI [2] | TGI [3] | TGI [4] | TGI [5] | TGI [6] | TGI [8] | TGI [9] | TGI [10] | TGI [11] | TGI [12] | TGI [13] | TGI [14] | TGI [15] | TGI [16] | TGI [17] | TGI [18] | TGI [19] | TGI [20] | TGI [21] | TGI [22] | TGI [23] | TGI [24] | TGI [25] | TGI [26] | TGI [27] | TGI [28] | TGI [31] | TGI [32] | TGI [33] | TGI [35] | TGI [36] | TGI [38] | TGI [39] | TGI [40] | TGI [41] | TGI [42] | TGI [43] | TGI [44] | TGI [46] | TGI [47] | TGI [48] | TGI [49] | TGI [50]
91.1 µM: TGI [37]
75.5 µM: TGI [34]
70.9 µM: TGI [29]
39 µM: TGI [30]

N[C@@H]1CCCC[C@@H]1N.O=P([O-])([O-])CNCP(=O)([O-])[O-].[Pt+2]
inactive: GI50 [1] > 100 µM | GI50 [51] > 100 µM | GI50 [2] > 100 µM | GI50 [3] > 100 µM | GI50 [4] > 100 µM | GI50 [5] > 100 µM | GI50 [6] > 100 µM | GI50 [7] > 100 µM | GI50 [9] > 100 µM | GI50 [11] > 100 µM | GI50 [12] > 100 µM | GI50 [13] > 100 µM | GI50 [14] > 100 µM | GI50 [15] > 100 µM | GI50 [16] > 100 µM | GI50 [17] > 100 µM | GI50 [18] > 100 µM | GI50 [52] > 100 µM | GI50 [19] > 100 µM | GI50 [20] > 100 µM | GI50 [21] > 100 µM | GI50 [53] > 100 µM | GI50 [22] > 100 µM | GI50 [23] > 100 µM | GI50 [54] > 100 µM | GI50 [24] > 100 µM | GI50 [25] > 100 µM | GI50 [26] > 100 µM | GI50 [27] > 100 µM | GI50 [28] > 100 µM | GI50 [29] > 100 µM | GI50 [30] > 100 µM | GI50 [31] > 100 µM | GI50 [32] > 100 µM | GI50 [33] > 100 µM | GI50 [34] > 100 µM | GI50 [35] > 100 µM | GI50 [36] > 100 µM | GI50 [37] > 100 µM | GI50 [38] > 100 µM | GI50 [39] > 100 µM | GI50 [55] > 100 µM | GI50 [56] > 100 µM | GI50 [40] > 100 µM | GI50 [41] > 100 µM | GI50 [42] > 100 µM | GI50 [57] > 100 µM | GI50 [44] > 100 µM | GI50 [45] > 100 µM | GI50 [46] > 100 µM | GI50 [47] > 100 µM | GI50 [48] > 100 µM | GI50 [49] > 100 µM | GI50 [50] > 100 µM
> 100 µM: TGI [1] | TGI [51] | TGI [2] | TGI [3] | TGI [4] | TGI [5] | TGI [6] | TGI [7] | TGI [9] | TGI [11] | TGI [12] | TGI [13] | TGI [14] | TGI [15] | TGI [16] | TGI [17] | TGI [18] | TGI [52] | TGI [19] | TGI [20] | TGI [21] | TGI [53] | TGI [22] | TGI [23] | TGI [54] | TGI [24] | TGI [25] | TGI [26] | TGI [27] | TGI [28] | TGI [29] | TGI [30] | TGI [31] | TGI [32] | TGI [33] | TGI [34] | TGI [35] | TGI [36] | TGI [37] | TGI [38] | TGI [39] | TGI [55] | TGI [56] | TGI [40] | TGI [41] | TGI [42] | TGI [57] | TGI [44] | TGI [45] | TGI [46] | TGI [47] | TGI [48] | TGI [49] | TGI [50]

C[N+](C)(C)CC1CCCC(C[N+](C)(C)C)C1=NO (stereo unspecified)
> 100 µM: TGI [1] | TGI [2] | TGI [3] | TGI [4] | TGI [6] | TGI [7] | TGI [9] | TGI [10] | TGI [12] | TGI [13] | TGI [15] | TGI [18] | TGI [52] | TGI [19] | TGI [20] | TGI [21] | TGI [22] | TGI [23] | TGI [54] | TGI [24] | TGI [25] | TGI [26] | TGI [27] | TGI [28] | TGI [30] | TGI [31] | TGI [58] | TGI [32] | TGI [33] | TGI [34] | TGI [36] | TGI [37] | TGI [38] | TGI [39] | TGI [55] | TGI [56] | TGI [40] | TGI [41] | TGI [42] | TGI [57] | TGI [43] | TGI [44] | TGI [45] | TGI [46] | TGI [47] | TGI [48] | TGI [49] | TGI [50]

CCN(C(C)=N)c1ccccc1
44.3 µM: TGI [47]
> 100 µM: TGI [1] | TGI [51] | TGI [2] | TGI [3] | TGI [4] | TGI [5] | TGI [6] | TGI [7] | TGI [8] | TGI [10] | TGI [11] | TGI [12] | TGI [13] | TGI [14] | TGI [15] | TGI [16] | TGI [17] | TGI [52] | TGI [19] | TGI [20] | TGI [21] | TGI [53] | TGI [22] | TGI [23] | TGI [54] | TGI [24] | TGI [25] | TGI [26] | TGI [27] | TGI [28] | TGI [29] | TGI [30] | TGI [31] | TGI [58] | TGI [32] | TGI [33] | TGI [34] | TGI [35] | TGI [36] | TGI [37] | TGI [38] | TGI [39] | TGI [55] | TGI [56] | TGI [40] | TGI [41] | TGI [42] | TGI [57] | TGI [44] | TGI [45] | TGI [46] | TGI [48] | TGI [49] | TGI [50]
